Experiments:
[1] = tested on: UC patients; details: 2 mg QD for 12 weeks; cited from earlier work
[2] = tested on: lymphocyte count; assay: Phase 2 atopic dermatitis study: absolute/peripheral lymphocyte count; assay type: in vivo, human
From the text: (§1) The study included multiple periods: (i) up to a 4-week screening period (to determine subject eligibility); (ii) a 12-week double-blind treatment period with a 4-week safety follow-up period; and (iii) a 52-week open-label extension period followed by a 4-week safety follow-up period. Subjects with chronic AD for at least one year (as defined by Hanifin and Rajka criteria (Hanifin 1980)) despite optimized skin care (e.g., use of emollients, avoidance of irritants) whose disease is not adequately controlled with topical therapies, or for whom those therapies are not advisable, were equally randomized (1:1:1 ratio) to receive etrasimod (1 or 2 mg) or placebo. Etrasimod 1 or 2 mg tablets or matching placebo tablets were taken orally once daily during the double-blind treatment period. Etrasimod 2 mg tablets are taken orally once daily during the open-label extension period. There is no reference therapy (no placebo) during the open-label extension period.
During the double-blind treatment period, etrasimod plasma concentrations and a complete blood count (CBC) including lymphocyte count were assessed on day 1 and before dosing at subsequent study visits. Study visits occurred at baseline, week 1, week 2, week 4, week 6, week 8, week 12, at the end of treatment, and at the week 16 follow-up visit. The absolute lymphocyte count (ALC) was included as part of the assessment.

[3] = tested on: patients with moderate to severe atopic dermatitis; assay: Phase 2 atopic dermatitis study: adverse events and tolerability; assay type: in vivo, human
[4] = tested on: heart rate; assay: Phase 2 atopic dermatitis study: heart rate effects after first dose; assay type: in vivo, human; details: for placebo corrected maximal mean heart rate decrease from baseline: 2 hours after first dose
From the text: as §1
There was a decrease of 1.5 bpm in the 1 mg group and a decrease of 6.7 bpm in the 2 mg group. […] After the first dose, the heart rate differences across the 3 groups came together by week 1 and were similar from weeks 2-12. One participant in the 2 mg etrasimod group had transient 2nd degree AVB Type 1 which was self-limited, and asymptomatic. The participant went on to further dosing without any cardiac changes or symptoms.

[5] = tested on: patients with moderate to severe atopic dermatitis; assay: Phase 2 randomized, double-blind, placebo-controlled study: efficacy (EASI, vIGA, pruritus NRS, patient-reported outcomes); assay type: in vivo, human; details: for reduction in EASI from baseline to week 12: 12 weeks (n=47); for delta versus placebo in vIGA 0 or 1 response at week 12: p<0.05
Experimental: A Phase 2, multicenter, randomized, double-blind, placebo-controlled study was conducted to assess the safety and efficacy of etrasimod in patients with moderate to severe atopic dermatitis. The primary endpoint measured was percent change in Eczema Area and Severity Index (EAST) from baseline to week 12, followed by a 4-week follow-up observation period. Secondary endpoints include the proportion of participants achieving EASI-75, proportion of participants with a validated Investigator Global Assessment (vIGA) 0 to 1, and percent change in peak pruritis. The trial enrolled approximately 140 patients and was conducted in study sites across the United States, Canada and Australia. An open-label extension of the trial is ongoing. The study included multiple periods: (i) up to a 4-week screening period (to determine subject eligibility); (ii) a 12-week double-blind treatment period with a 4-week safety follow-up period; and (iii) a 52-week open-label extension period followed by a 4-week safety follow-up period. Subjects with chronic AD for at least one year (as defined by Hanifin and Rajka criteria (Hanifin 1980)) despite optimized skin care (e.g., use of emollients, avoidance of irritants) whose disease is not adequately controlled with topical therapies, or for whom those therapies are not advisable, were equally randomized (1:1:1 ratio) to receive etrasimod (1 or 2 mg) or placebo. Etrasimod 1 or 2 mg tablets or matching placebo tablets were taken orally once daily during the double-blind treatment period. Etrasimod 2 mg tablets are taken orally once daily during the open-label extension period. There is no reference therapy (no placebo) during the open-label extension period. Inclusion Criteria: Subjects must meet ALL of the following inclusion criteria to be eligible for enrollment into the study. • 1. Men or women between ≥18 and ≤70 years of age at the time of informed consent. • 2. Chronic AD, defined by Hanifin and Rajka criteria (Hanifin 1980), that has been present for at least one year prior to the screening visit. • 3. Eczema Area and Severity Index (EAST)≥12 at the screening visit and ≥16 at the baseline visit. • 4. vIGA score≥3 (on the 0 to 4 vIGA scale, in which 3=moderate and 4=severe) involvement at the screening and baseline visits. • 5. Body surface area (BSA)≥10% of AD involvement at the screening and baseline visits. • 6. Recent history (within 6 months prior to the screening visit) of inadequate response to treatment with topical medications, or when topical treatments are otherwise medically inadvisable (e.g., because of important side effects or safety risks), which can be documented by medical records or by the history provided to the investigator by the subject despite optimized skin care (.e., avoidance of irritants, use of emollients). • 7. Willing to apply a dose of topical emollient/moisturizer at least once daily for ≥1 week prior to the baseline visit and willing to continue daily application over the course of the study without change (i.e., type, frequency, application). • 8. Willing and able to comply with all clinic visits and study-related procedures and understand and complete study-related questionnaires. • 9. Provide signed informed consent prior to conducting any procedures. Efficacy was assessed by changes in AD severity using EASI, vIGA, SCORing Atopic Dermatitis (SCORAD), and BSA. Symptoms of itch were assessed using the pruritus numeric rating scale (NRS). Patient-reported outcomes will also be assessed using the Dermatology Life Quality Index (DLQI), Patient Oriented Eczema Measure (POEM), and Patient Global Assessment (PGA).

[6] = tested on: healthy adult subjects; details: single doses up to 5 mg, repeated doses up to 4 mg QD; cited from earlier work

## O=C(O)C[C@H]1CCc2c1[nH]c1ccc(OCc3ccc(C4CCCC4)c(C(F)(F)F)c3)cc21 [etrasimod, (R)-2-(7-(4-cyclopentyl-3-(trifluoromethyl)benzyloxy)-1,2,3,4-tetrahydrocyclopenta[b]indol-3-yl)acetic acid]
[1]
  endoscopic and symptomatic improvements versus placebo: clinically meaningful and statistically significant endoscopic and symptomatic improvements
[2]; 2 mg group, between weeks 4 and 8
  patients with ALC measurement of Grade 3 (between 0.2x10e9 and 0.5x10e9 cells/L): nine
[2]; 2 mg group, week 2
  maximal reduction in the peripheral lymphocyte count: 43.6%
[2]; 2 mg patients with dose interruption, between weeks 4 and 8
  lymphocyte count after treatment withdrawal: rapid rebound in lymphocyte count
[3]; 1 mg and 2 mg, 12-week double-blind period
  tolerability: well tolerated
[3]; 2 mg treatment group
  cases of dyspnea: one case
[3]; double-blind treatment period
  adverse events related to heart rate: no adverse events related to heart rate
  cases of macular edema: no cases
  conjunctivitis, acne, venous thromboembolic events, opportunistic or serious infections: no reports
[4]; 1 mg and 2 mg groups, after first dose
  blood pressure changes or symptoms associated with heart rate changes: not associated with any blood pressure changes or symptoms
[4]; 1 mg group
  placebo corrected maximal mean heart rate decrease from baseline: 1.5 bpm
[4]; 2 mg group
  placebo corrected maximal mean heart rate decrease from baseline: 6.7 bpm
[4]; 2 mg group, self-limited, asymptomatic
  participants with transient 2nd degree AVB Type 1: One
[5]; 1 mg once daily, week 12
  patients achieving EASI-75: 27.7%
  patients achieving vIGA of 0 or 1 and a reduction from baseline of >=2 points at week 12: 14.9%
[5]; 1 mg orally once daily
  reduction in EASI from baseline to week 12: 58.7%
[5]; 1 mg, week 12, p=0.61 vs placebo
  proportion of patients with decrease in pruritus >=4 points at week 12: 32.5%
[5]; 2 mg dose group, week 4
  improvement in EASI from baseline to week 4: statistically significant improvement
  improvement in pruritis at week 4: statistically significant improvement
  proportion of patients who achieved EASI-75 at week 4: statistically significant improvement
[5]; 2 mg group vs placebo
  delta versus placebo in vIGA 0 or 1 response at week 12: 16.8%
[5]; 2 mg group without interruptions, weeks 4 to 12
  percent change in EASI over time versus placebo: significant at 4 weeks
[5]; 2 mg group without study interruptions
  patients achieving EASI-75 at week 12: 42.1%
[5]; 2 mg group without study interruptions (38 participants)
  patients achieving vIGA of 0 or 1 and reduction from baseline >=2 points at week 12: 36.8%
[5]; 2 mg group without study interruptions vs placebo
  delta versus placebo in vIGA 0 or 1 response at week 12: 23.8%
[5]; 2 mg once daily, week 12
  patients achieving EASI-75: 38.3%
  patients achieving vIGA of 0 or 1 and a reduction from baseline of >=2 points at week 12: 29.8%
[5]; 2 mg orally once daily
  reduction in EASI from baseline to week 12: 57.2%
[5]; 2 mg patients with dose interruption, after restart
  treatment response after restart of treatment: recaptured
[5]; 2 mg patients with dose interruption, to week 12
  EASI change from baseline in patients who ceased then reinitiated treatment: improved rapidly after resumption
[5]; 2 mg, over 12 weeks
  patient-reported and clinician-assessed outcomes versus placebo: improved patient-reported outcomes and clinician-assessed outcomes versus placebo
[5]; 2 mg, week 12
  proportions of patients achieving vIGA score of 0 or 1, DLQI and POEM versus placebo: significantly greater proportions
[5]; 2 mg, week 12, p=0.15 vs placebo
  proportion of patients with decrease in pruritus >=4 points at week 12: 42.1%
[5]; etrasimod group without interruptions
  pruritis NRC changes over time versus placebo: statistically significant from weeks 2-8
[6]
  safety and tolerability in clinical trials: safe and well-tolerated

— patent US20230414567A1, “METHODS OF TREATING CONDITIONS RELATED TO THE S1P1 RECEPTOR” (Arena Pharmaceuticals, Inc., priority 2020, published 2023)
